In PMC3845904 (Chemical research in toxicology, 2009):
Where “and” joins values, the source holds several entries; their conditions need not be identical. Equal entries are not always repeated.

Columns and labels:
human P450 1B1 [1] = target: T1, human P450 1B1 (Homo sapiens, UniProt Q16678); assay: Spectral binding titration; conditions: for Reverse Type I spectra ΔAmax/Ks (magnitude of spectral binding) / Reverse Type I spectra ΔAmax: purified P450 1B1 1.0 μM, ND = not detected at 100 μM; for Reverse Type I spectra ΔAmax: means ± SEs
T1 sequence (Q16678 1-543): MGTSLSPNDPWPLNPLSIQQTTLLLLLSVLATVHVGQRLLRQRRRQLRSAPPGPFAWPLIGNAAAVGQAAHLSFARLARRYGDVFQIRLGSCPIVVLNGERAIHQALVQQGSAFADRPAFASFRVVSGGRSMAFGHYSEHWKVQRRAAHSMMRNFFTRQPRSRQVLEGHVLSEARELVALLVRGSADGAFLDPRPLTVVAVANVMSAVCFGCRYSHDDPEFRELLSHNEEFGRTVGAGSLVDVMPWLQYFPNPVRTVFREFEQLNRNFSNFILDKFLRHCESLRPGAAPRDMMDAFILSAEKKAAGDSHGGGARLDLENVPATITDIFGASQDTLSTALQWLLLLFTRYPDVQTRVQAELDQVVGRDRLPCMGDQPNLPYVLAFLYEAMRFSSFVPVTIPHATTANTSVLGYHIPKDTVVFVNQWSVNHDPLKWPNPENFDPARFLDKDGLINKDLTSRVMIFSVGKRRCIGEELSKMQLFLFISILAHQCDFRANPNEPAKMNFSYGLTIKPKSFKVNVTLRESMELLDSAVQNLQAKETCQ

human P450 1B1 [2] = target: T1, human P450 1B1; assay: biochemical
P450 1A2 = P450 1A2 (Homo sapiens, UniProt P05177); assay: Inhibition of EROD activity catalyzed by P450 1A2; format: biochemical; conditions: Figure 4
P450 1A2, sequence (P05177 whole entry): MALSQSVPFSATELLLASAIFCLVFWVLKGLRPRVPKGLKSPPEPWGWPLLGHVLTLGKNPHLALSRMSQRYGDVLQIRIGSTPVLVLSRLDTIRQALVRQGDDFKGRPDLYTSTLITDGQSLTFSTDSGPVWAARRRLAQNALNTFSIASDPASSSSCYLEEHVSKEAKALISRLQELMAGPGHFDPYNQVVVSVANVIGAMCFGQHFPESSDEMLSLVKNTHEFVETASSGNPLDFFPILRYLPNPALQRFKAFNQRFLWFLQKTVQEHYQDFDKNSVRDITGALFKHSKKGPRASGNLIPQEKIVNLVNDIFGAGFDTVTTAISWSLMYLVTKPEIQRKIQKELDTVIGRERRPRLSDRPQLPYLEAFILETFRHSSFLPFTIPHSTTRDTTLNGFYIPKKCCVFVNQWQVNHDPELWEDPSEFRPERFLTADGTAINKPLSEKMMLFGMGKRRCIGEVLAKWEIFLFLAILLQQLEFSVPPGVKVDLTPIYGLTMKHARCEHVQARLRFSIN

Row | SMILES | IC50 (human P450 1B1 [2]) | Kd (human P450 1B1 [1]) | Reverse Type I spectra ΔAmax (human P450 1B1 [1]; listed as Flavone) | inhibition of P450 1A2 EROD (in words) (P450 1A2) | Reverse Type I spectra ΔAmax/Ks (magnitude of spectral binding) (human P450 1B1 [1]) | Reverse Type I spectra ΔAmax (human P450 1B1 [1]) | spectral interaction with P450 1B1 (in words) (human P450 1B1 [1]; up to 100 μM)
1 | C#CCOCc1ccc(-c2ccccc2)cc1 [4BMPE, 4-biphenyl methyl propargyl ether] | – | – | – | – | 0.0055 | 0.071 ± 0.002 | –
2 | COc1ccc(-c2cc(=O)c3ccc(O)c(O)c3o2)cc1 [4M78DHF] | 1100 ± 200 nM | 56000 ± 15000 nM | – | – | 0.0013 | 0.073 ± 0.009 | –
3 | c1cc2ccc3cccc4ccc(c1)c2c34 [pyrene, reference compound] | 25 ± 3 nM | 1300 ± 100 nM | – | – | 0.0338 | 0.044 ± 0.001 | –
4 | COc1ccc(-c2cc(=O)c3c(O)cc(O)cc3o2)cc1OC [34DM57DHF, 3′,4′-dimethoxy-5,7-dihydroxyflavone] | – | 2000 ± 300 nM | – | – | 0.0180 | 0.037 ± 0.002 | –
5 | O=c1cc(-c2ccccc2)oc2ccc3ccccc3c12 [BNF, β–naphthoflavone, reference compound] | 4.1 ± 0.4 nM | 13000 ± 1200 nM | – | – | 0.0061 | 0.079 ± 0.009 | –
6 | COc1cccc(-c2cc(=O)c3ccc(O)c(O)c3o2)c1 [3M78DHF, 3′-methoxy-7,8-dihydroxyflavone] | 3700 ± 500 nM | 140000 ± 15000 nM | – | – | 0.0003 | 0.044 ± 0.005 | –
7 | CC#Cc1ccc2ccc3ccccc3c2c1 [3PPh, 3-(1-propynyl)phenanthrene] | 67 ± 8 nM | – | – | – | 0.0194 | 0.060 ± 0.006 | –
8 | Oc1cc(O)cc(/C=C/c2ccc(O)c(O)c2)c1 [Piceatannol (Pice), Piceatannol, reference compound] | 830 ± 140 nM | 21000 ± 1100 nM | – | – | 0.0016 | 0.034 ± 0.001 | –
9 | O=c1cc(-c2ccccc2)oc2c1ccc1ccccc12 [ANF, α-naphthoflavone, reference compound] | – | – | – | – | 0.0061 | 0.073 ± 0.007 | –
10 | COc1cc(C=Cc2ccc(OC)cc2OC)cc(OC)c1 [TMS, 2,4,3′,5′-tetramethoxystilbene, reference compound] | – | – | – | – | 0.0110 | – | –
11 | COc1cccc(-c2cc(=O)c3c(O)cc(O)cc3o2)c1 [3M57DHF, 3′-methoxy-5,7-dihydroxyflavone] | 110 ± 20 nM | 20000 ± 3000 nM | – | – | 0.0037 | 0.075 ± 0.008 | –
12 | C[C@]12CC[C@@H]3c4ccc(O)cc4CC[C@H]3[C@@H]1CC[C@@H]2O [E2, 17β-estradiol, reference compound] | – | – | – | – | 0.0005 | 0.039 ± 0.007 | –
13 | COc1ccc(-c2cc(=O)c3ccc(O)c(O)c3o2)cc1OC [34DM78DHF, 3′,4′-dimethoxy-7,8-dihydroxyflavone] | 19000 ± 2300 nM | 190000 ± 17000 nM | – | – | 0.0003 | 0.053 ± 0.003 | –
14 | C#Cc1ccc2ccc3ccccc3c2c1 [3EPh, 3-ethynylphenanthrene] | 160 ± 20 nM | – | – | – | 0.0237 | 0.071 ± 0.001 | –
15 | C#CCOc1ccccc1-c1ccccc1 [2BPE, 2-biphenyl propargyl ether] | – | – | – | – | 0.0010 | 0.110 ± 0.009 | –
16 | C#Cc1cc2cccc3ccc4cccc1c4c32 [4EP, 4-ethynylpyrene] | 170 ± 30 nM | – | – | – | 0.0130 | 0.052 ± 0.004 | –
17 | CC#Cc1cc2ccccc2c2ccccc12 [9PPh, 9-(1-propynyl)phenanthrene] | 160 ± 30 nM | – | – | – | 0.0153 | 0.049 ± 0.002 | –
18 | C#Cc1cc2ccc3cccc4ccc(c1)c2c34 [2EP, 2-ethynylpyrene] | 38 ± 4 nM | – | – | – | 0.0209 | 0.071 ± 0.001 | –

Row | SMILES | IC50 (human P450 1B1 [2]) | Kd (human P450 1B1 [1]) | Reverse Type I spectra ΔAmax (human P450 1B1 [1]; listed as Flavone) | inhibition of P450 1A2 EROD (in words) (P450 1A2) | Reverse Type I spectra ΔAmax/Ks (magnitude of spectral binding) (human P450 1B1 [1]) | Reverse Type I spectra ΔAmax (human P450 1B1 [1]) | spectral interaction with P450 1B1 (in words) (human P450 1B1 [1]; up to 100 μM)
19 | CC#Cc1ccc2ccc3cccc4ccc1c2c34 [1PP, 1-(1-propynyl)pyrene] | 45 ± 5 nM | – | – | – | 0.0156 | 0.042 ± 0.002 | –
20 | COc1ccc(-c2cc(=O)c3ccccc3o2)cc1OC [34DMF, 3′,4′-dimethoxyflavone] | 260 ± 30 nM | 24000 ± 3200 nM | – | – | 0.0021 | 0.051 ± 0.003 | –
21 | C#CCOc1ccc(-c2ccccc2)cc1 [4BPE, 4-biphenyl propargyl ether] | – | – | – | – | 0.0007 | 0.056 ± 0.010 | –
22 | CC#Cc1ccc2c(ccc3ccccc32)c1 [2PPh, 2-(1-propynyl)phenanthrene] | 150 ± 20 nM | – | – | – | 0.0305 | 0.067 ± 0.005 | –
23 | C#Cc1cc2ccccc2c2ccccc12 [9EPh, 9-ethynylphenanthrene] | 120 ± 10 nM | – | – | – | 0.0197 | 0.071 ± 0.004 | –
24 | C#Cc1ccc2c(ccc3ccccc32)c1 [2EPh, 2-ethynylphenanthrene] | 210 ± 30 nM | – | – | – | 0.0190 | 0.080 ± 0.004 | –
25 | O=c1cc(-c2ccccc2)oc2ccccc12 [flavone, reference compound] | – | – | 0.026 | – | 0.0006 | 0.026 ± 0.002 | –
26 | C#Cc1ccc2ccc3cccc4ccc1c2c34 [1EP, 1-ethynylpyrene] | 36 ± 5 nM | – | – | – | 0.0169 | 0.049 ± 0.005 | –
27 | COc1ccccc1-c1cc(=O)c2ccc(O)c(O)c2o1 [2M78DHF, 2′-methoxy-7,8-dihydroxyflavone] | > 100000 nM | – | – | – | – | – | did not show any detectable spectral interaction
28 | Oc1ccc(/C=C/c2cc(O)cc(O)c2)cc1 [resveratrol (Res), resveratrol, reference compound] | 1200 ± 200 nM | 28000 ± 3300 nM | – | – | 0.0012 | 0.034 ± 0.004 | –
29 | C#CCOc1ccccc1-c1ccccc1OCC#C [22BDPE, 2,2-biphenyl dipropagyl ether] | – | – | – | – | 0.0006 | 0.018 ± 0.001 | –
30 | c1ccc(-c2ccccc2)cc1 [biphenyl, reference compound] | 19000 ± 2300 nM | 140000 ± 19000 nM | – | – | 0.0003 | 0.037 ± 0.008 | –
31 | c1ccc2c(c1)ccc1ccccc12 [Phenanthrene, phenanthrene, reference compound] | 510 ± 100 nM | 14000 ± 1700 nM | – | – | 0.0031 | 0.044 ± 0.002 | –
32 | C#CCOCc1ccccc1-c1ccccc1 [2BMPE, 2-biphenyl methyl propargyl ether] | – | – | – | – | 0.0009 | 0.130 ± 0.009 | –
33 | C=Cc1ccc2ccc3cccc4ccc1c2c34 [1VP, 1-vinylpyrene] | 150 ± 20 nM | 4400 ± 300 nM | – | – | 0.0209 | 0.092 ± 0.003 | –
34 | c1ccc2ccccc2c1 [naphthalene, reference compound] | ~26000 nM and 26000 nM | – | – | weak | – | – | –
35 | C#CCOc1ccc(-c2ccc(OCC#C)cc2)cc1 [44BDPE, 4,4-biphenyl dipropargyl ether] | – | – | – | – | 0.0013 | 0.031 ± 0.002 | –
36 | COc1ccccc1-c1cc(=O)c2c(O)cc(O)cc2o1 [2M57DHF, 2′-methoxy-5,7-dihydroxyflavone] | 240 ± 20 nM | 64000 ± 10000 nM | – | – | 0.0016 | 0.100 ± 0.011 | –

Now from value to molecule, other results behind:

Row | IC50 (human P450 1B1 [2]) | Kd (human P450 1B1 [1]) | Reverse Type I spectra ΔAmax (human P450 1B1 [1]; listed as Flavone) | inhibition of P450 1A2 EROD (in words) (P450 1A2) | SMILES | Reverse Type I spectra ΔAmax/Ks (magnitude of spectral binding) (human P450 1B1 [1]) | Reverse Type I spectra ΔAmax (human P450 1B1 [1]) | spectral interaction with P450 1B1 (in words) (human P450 1B1 [1]; up to 100 μM)
37 | 1200 ± 200 nM | – | – | – | C#Cc1ccc2ccccc2c1 [2EN, 2-ethynylnaphthalene] | 0.0033 | 0.049 ± 0.002 | –
38 | 2200 ± 300 nM | – | – | – | C#Cc1ccc(-c2ccccc2)cc1 [4EB, 4-ethynylbiphenyl] | 0.0030 | 0.023 ± 0.001 | –
39 | 150 ± 20 nM | 51000 ± 4100 nM | – | – | COc1cccc(-c2cc(=O)c3ccccc3o2)c1 [3MF, 3′-methoxyflavone] | 0.0006 | 0.029 ± 0.001 | –
40 | 230 ± 30 nM | 66000 ± 11000 nM | – | – | COc1ccc(-c2cc(=O)c3ccccc3o2)cc1 [4MF, 4′-methoxyflavone] | – | – | –
41 | 320 ± 60 nM | 56000 ± 8000 nM | – | – | COc1ccccc1-c1cc(=O)c2ccccc2o1 [2MF, 2′-methoxyflavone] | 0.0013 | 0.070 ± 0.005 | –
